Data published in patent US5270302A, “Derivatives of tetrapeptides as CCK agonists” (priority 1991, dated 1993).
Counter-ions that a name gives are not always drawn. Like-named read-outs stand apart in the source and are kept apart here. *1 amine or outer side, *2 acyl side, *3 side chain or, on linkers, in order; H or OH if unused. Where a SMILES comes first, the peptide text is derived from it. Side-chain parts run from the residue outwards. [ ]: non-standard residue; d: D form. The star is where a group is joined. ξ: configuration not given here. NMeW = CN[C@@H](Cc1c[nH]c2ccccc12)C(=O)O; ξαMeW = CC(N)(Cc1c[nH]c2ccccc12)C(=O)O; 1Nal = N[C@@H](Cc1cccc2ccccc12)C(=O)O; X12 = O=C(C=Cc1ccc(C(F)(F)F)cc1)*; NMeF = CN[C@@H](Cc1ccccc1)C(=O)O; NMeD = CN[C@@H](CC(=O)O)C(=O)O; NH(2-Me-phenyl) = Cc1ccccc1N*; X17 = O=C(C=Cc1ccccc1O)*; Boc = CC(C)(C)OC(=O)*; CO = O=C([*:1])[*:2]; Bz = O=C(c1ccccc1)*; NHPh = c1ccc(N*)cc1; Ms = CS(=O)(=O)*

Columns and labels:
Type-A CCK receptor = target: T1, Type-A CCK receptor (Cavia porcellus, UniProt Q63931); experiment: Radioligand binding of [125I]BH-CCK-8 in guinea pig pancreatic membrane preparations; conditions: guinea pig pancreatic membranes, 37° C., 150 min
T1 construct: Cortical and pancreatic membranes were prepared as described; from tissue; host or cells: guinea pig pancreas membranes
T1 sequence (Q63931 1-430): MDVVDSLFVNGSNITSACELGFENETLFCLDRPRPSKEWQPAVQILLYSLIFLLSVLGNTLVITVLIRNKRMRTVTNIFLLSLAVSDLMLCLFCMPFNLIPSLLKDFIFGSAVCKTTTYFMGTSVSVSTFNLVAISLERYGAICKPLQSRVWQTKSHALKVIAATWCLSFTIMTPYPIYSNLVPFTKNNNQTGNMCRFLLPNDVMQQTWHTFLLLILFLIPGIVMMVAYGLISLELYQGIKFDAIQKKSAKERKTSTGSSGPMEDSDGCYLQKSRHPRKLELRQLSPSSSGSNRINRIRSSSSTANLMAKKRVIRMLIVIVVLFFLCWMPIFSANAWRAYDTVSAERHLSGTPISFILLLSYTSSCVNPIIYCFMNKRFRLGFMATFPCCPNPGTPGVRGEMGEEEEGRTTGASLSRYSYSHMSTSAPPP
Source text: (§1) CCK-8 [Asp-Tyr(SO3 H)-Met-Gly-Trp-Met-Asp-PheNH2 ], bestatin and phosphoramidion were purchased from Peptide International (Louisville, Ky.). EGTA (ethylene glycol-bis-(β-aminoethyl) N,N,N',N'-tetraacetic acid), HEPES (4-(2-hydroxyethyl)-1-piperazine-enthanesulfonic acid) and BSA (bovine serum albumin) were purchased from Sigma Chemical Co. (St. Louis, Mo.). [^125 I]-Bolton-Hunteer (BH-CCK-8) (specific activity, 2200 Ci/mmol) was obtained from New England Nuclear (Boston, Mass.). Male guinea pigs, 250 to 325 g, were obtained from Scientific Small Animal Laboratory and Farm (Arlington Heights, Ill.). Collagenase, code CLSPA was purchased from Worthington (Frehold, N.J.).
(§2) Protocol For Radioligand Binding Experiments in Guinea Pig Cerebral Cortical and Pancreatic Membrane Preparations
(§3) Cortical and pancreatic membranes were prepared as described (Lin and Miller; J. Pharmacol. Exp. Ther. 1985, 232:775-780,). In brief, cortex and pancreas were removed and rinsed with ice-cold saline. Visible fat and connective tissues were removed from the pancreas. […] The homogenates were entrifuged for 10 minutes at 1075×g and pellets were discarded. The supernatants were saved and centrifuged at 38,730×g for 20 minutes. The resultant pellets were rehomogenized in 25 mL of 50 mM Tris-HCl buffer with a Teflon-glass homogenizer, 5 up and down strokes. The homogenates were centrifuged again at 38,730×g for 20 minutes. Pellets werre then resuspended in 20 mM HEPES, containing 1 mM EGTA, 118 mM NaCl, 4.7 mM KCl, 5 mM MgCl2, 100 μM bestatin, 3 μM phosphoramidon, pH 7.4 at 22° C. with a Teflon-glass homogenizer, 15 up and down strokes. Resuspension volume for the cortex was 15-18 mL per gram of original wet weight and 60 mL per gram for the pancreas.
(§4) [^125 I]Bolton-Hunter CCK-8 and test compounds were diluted with HEPES-EGTA-salt buffer (see above) containing 0.5% BSA. To 1 mL Skatron polystyrene tubes were added 25 μL of test compounds, 25 μL of [^125 I]BH-CCK-8 and 200 μL of membrane suspension. The final BSA concentration was 0.1%. The cortical tissues were incubated at 30° C. for 150 minutes and pancreatic tissues were incubated at 37° C. for 150 min. Incubations were terminated by filtration using Skatron Cell Harvester and SS32 microfiber filter mats. […] IC50 s were determined from the Hill analysis.

Type-B CCK receptor = target: T2, Type-B CCK receptor (Cavia porcellus, UniProt H0VZC5); experiment: Radioligand binding of [125I]BH-CCK-8 in guinea pig cerebral cortical membrane preparations
T2 construct: Cortical and pancreatic membranes were prepared as described; from tissue; host or cells: guinea pig cerebral cortex membranes
T2 sequence (H0VZC5 1-426): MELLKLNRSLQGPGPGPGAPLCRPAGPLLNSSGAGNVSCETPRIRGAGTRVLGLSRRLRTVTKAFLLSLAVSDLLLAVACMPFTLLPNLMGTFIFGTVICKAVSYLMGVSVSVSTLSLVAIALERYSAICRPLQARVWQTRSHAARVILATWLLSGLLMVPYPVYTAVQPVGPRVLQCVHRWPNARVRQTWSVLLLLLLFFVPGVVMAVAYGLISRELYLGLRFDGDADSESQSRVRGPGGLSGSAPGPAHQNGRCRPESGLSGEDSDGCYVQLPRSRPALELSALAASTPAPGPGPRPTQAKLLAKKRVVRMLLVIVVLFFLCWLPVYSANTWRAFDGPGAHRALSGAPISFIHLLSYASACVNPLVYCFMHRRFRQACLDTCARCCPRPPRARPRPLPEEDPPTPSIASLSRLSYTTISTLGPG
Source text: as §1, §2, §3, §4

[1] = read-out: IC50 (nM) 125I-BH-CCK-8 Type-A receptor
[2] = guinea pig cortical membranes, 30° C., 150 minutes, read-out: IC50 (nM) 125I-BH-CCK-8 Type-B receptor
[3] = IC50 (nM) 125I-BH-CCK-8 Type-A receptor
[4] = IC50 (nM) 125I-BH-CCK-8 Type-B receptor, guinea pig cortical membranes, 30° C., 150 minutes

Row | SMILES | IC50 (Type-A CCK receptor; [1]) [nM] | IC50 (Type-B CCK receptor; [2]) [nM] | IC50 (Type-A CCK receptor; [3]) [nM] | IC50 (Type-B CCK receptor; [4]) [nM] | IC50 (Type-B CCK receptor) [nM]
1 | Cc1ccccc1NC(=O)NCCCC[C@H](NC(=O)C(C#N)Cc1c[nH]c2ccccc12)C(=O)N[C@@H](CC(=O)O)C(=O)N(C)[C@@H](Cc1ccccc1)C(N)=O (stereo partly shown) [Example 105, (2-Cyano-3-(3-indolyl)propionyl)-Lys(ε-N-(2-methylphenyl)aminocarbonyl)-Asp-(NMe)PheNH2] | 20 | 1300 |  |  | 
2 | Cc1ccccc1NC(=O)NCCCC[C@H](NC(=O)C(F)Cc1c[nH]c2ccccc12)C(=O)N[C@@H](CC(=O)O)C(=O)N[C@@H](Cc1ccccc1)C(N)=O (stereo partly shown) [Example 63, 2-Fluoro-3-(indol-3-yl)propionyl-Lys(ε-N-(2-methylphenyl)aminocarbonyl)-Asp-PheNH2] | 20 | 4500 |  |  | 
3 | Cc1ccccc1NC(=O)NCCCC[C@H](NC(=O)C1Cc2c[nH]c3cccc(c23)CC(=O)N1)C(=O)N[C@@H](CC(=O)O)C(=O)N(C)[C@@H](Cc1ccccc1)C(N)=O (stereo partly shown) [Example 112, Ctp-Lys(ε-N-(2-methylphenyl)aminocarbonyl)-Asp-(NMe)PheNH2] |  |  | 6.3 | 900 | 
4 | CN[C@@H](Cc1c[nH]c2ccccc12)C(=O)N[C@@H](CCCCNC(=O)Nc1ccccc1C)C(=O)N(C)[C@@H](CC(=O)O)C(=O)N[C@@H](Cc1cccc2ccccc12)C(N)=O [Example 100, (NMe)Trp-Lys(ε-N-(2-methylphenyl)aminocarbonyl)-(NMe)Asp-α-NalNH2] (H-[NMeW]K([CO-NH(2-Me-phenyl)])[NMeD][1Nal]-NH2) |  |  | 8 | 12000 | 
5 | Cc1ccccc1NC(=O)NCCCC[C@H](NC(=O)[C@H](Cc1c[nH]c2ccccc12)NC(=O)Nc1ccccc1)C(=O)N[C@@H](CC(=O)O)C(=O)N(C)[C@@H](Cc1ccccc1)C(N)=O [Example 84, Phenylaminocarbonyl-Trp-Lys(ε-N-(2-methylphenyl)aminocarbonyl)-Asp-(NMe)PheNH2] ({NHPh-CO}-WK([CO-NH(2-Me-phenyl)])D[NMeF]-NH2) |  |  | 3 | 3000 | 
6 | Cc1ccccc1NC(=O)NCCCC[C@H](NC(=O)[C@H](Cc1c[nH]c2ccccc12)NC(=O)c1ccccc1)C(=O)N(C)[C@@H](CC(=O)O)C(=O)N[C@@H](Cc1ccccc1)C(N)=O [Example 90, Benzoyl-Trp-Lys(ε-N-(2-methylphenyl)aminocarbonyl)-(NMe)Asp-PheNH2] (Bz-WK([CO-NH(2-Me-phenyl)])[NMeD]F-NH2) |  |  | 2.7 | 5100 | 
7 | CC(C)(C)OC(=O)N[C@@H](Cc1c[nH]c2ccccc12)C(=O)N[C@@H](CCCCNC(=O)C=Cc1ccccc1O)C(=O)N[C@@H](CC(=O)O)C(=O)N[C@@H](Cc1ccccc1)C(N)=O [Example 22, t-BOC-Trp-Lys(ε-N-(2-hydroxycinnamoyl))-Asp-PheNH2] (Boc-WK(X17)DF-NH2) | 81 | 200 |  |  | 
8 | CNC(=O)N[C@@H](Cc1c[nH]c2ccccc12)C(=O)N[C@@H](CCCCNC(=O)Nc1ccccc1C)C(=O)N[C@@H](CC(=O)O)C(=O)N(C)[C@@H](Cc1ccccc1)C(N)=O [Example 83, Methylaminocarbonyl-Trp-Lys(ε-N-(2-methylphenyl)aminocarbonyl)-Asp-(NMe)PheNH2] ({NHMe-CO}-WK([CO-NH(2-Me-phenyl)])D[NMeF]-NH2) |  |  | 9.7 | 4900 | 
9 | Cc1ccccc1NC(=O)NCCCC[C@H](NC(=O)CCc1c[nH]c2ccccc12)C(=O)N[C@@H](CC(=O)O)C(=O)N(C)[C@@H](Cc1ccccc1)C(N)=O [Example 70, 3-(Indol-3-yl)propionyl-Lys(ε-N-(2-methylphenyl)aminocarbonyl)-Asp-(NMe)PheNH2] | 13 | > 10000 |  |  | 
10 | Cc1ccccc1NC(=O)NCCCC[C@H](NC(=O)C(C)(N)Cc1c[nH]c2ccccc12)C(=O)N[C@@H](CC(=O)O)C(=O)N(C)[C@@H](Cc1ccccc1)C(N)=O (single isomer, unassigned; isomer a) [Example 98, (α-Methyl)Trp-Lys(ε-N-(2-methylphenyl)aminocarbonyl)-Asp-(NMe)PheNH2 (Isomer A)] |  |  | 4.9 | 3200 | 
11 | Cc1ccccc1NC(=O)NCCCC[C@H](NC(=O)CCc1cccc2ccccc12)C(=O)N[C@@H](CC(=O)O)C(=O)N(C)[C@@H](Cc1ccccc1)C(N)=O [Example 111, (3-(α-Naphthyl)propionyl)-Lys(ε-N-(2-methylphenyl)aminocarbonyl)-Asp-(NMe)PheNH2] | 77 | > 10000 |  |  | 
12 | Cc1ccccc1NC(=O)NCCCC[C@H](NC(=O)CCc1c[nH]c2ccccc12)C(=O)N(C)[C@@H](CC(=O)O)C(=O)N[C@@H](Cc1ccccc1)C(N)=O [Example 65, 3-(3-Indolyl)propionyl-Lys(ε-N-(2-methylphenyl)aminocarbonyl)-(NMe)Asp-PheNH2] | 68 | 10000 |  |  | 
13 | Cc1ccccc1NC(=O)NCCCC[C@H](NC(=O)[C@H](Cc1c[nH]c2ccccc12)NS(C)(=O)=O)C(=O)N[C@@H](CC(=O)O)C(=O)N(C)[C@@H](Cc1ccccc1)C(N)=O [Example 95, Methylsufonamyl-Trp-Lys(ε-N-(2-methylphenyl)aminocarbonyl)-Asp-(NMe)PheNH2] (Ms-WK([CO-NH(2-Me-phenyl)])D[NMeF]-NH2) | 47 | > 10000 |  |  | 
14 | CN[C@@H](Cc1c[nH]c2ccccc12)C(=O)N[C@@H](CCCCNC(=O)Nc1ccccc1C)C(=O)N(C)[C@@H](CC(=O)O)C(=O)N[C@@H](Cc1ccccc1)C(N)=O [Example 69, HCl-(NMe)Trp-Lys(ε-N-(2-methylphenyl)aminocarbonyl)-(NMe)Asp-PheNH2] (H-[NMeW]K([CO-NH(2-Me-phenyl)])[NMeD]F-NH2) |  |  | 14 |  | > 10000
15 | CC(C)(C)OC(=O)N[C@@H](Cc1c[nH]c2ccccc12)C(=O)N[C@@H](CCCCNC(=O)C=Cc1ccc(C(F)(F)F)cc1)C(=O)N[C@@H](CC(=O)O)C(=O)N[C@@H](Cc1ccccc1)C(N)=O [Example 8, t-BOC-Trp-Lys(ε-N-(4-trifluoromethylcinnamoyl))-Asp-PheNH2] (Boc-WK(X12)DF-NH2) | 200 | 5300 |  |  | 
16 | Cc1ccccc1NC(=O)NCCCC[C@H](NC(=O)CCc1c[nH]c2ccccc12)C(=O)N(C)[C@@H](CC(=O)O)C(=O)N[C@@H](Cc1cccc2ccccc12)C(N)=O [Example 103, (3-(3-Indolyl)propionyl)-Lys(ε-N-(2-methylphenyl)aminocarbonyl)-(NMe)Asp-α-NalNH2] | 6.1 | 6600 |  |  | 
17 | Cc1ccccc1NC(=O)NCCCC[C@H](NC(=O)C(C)(Cc1c[nH]c2ccccc12)NC(=O)OC(C)(C)C)C(=O)N[C@@H](CC(=O)O)C(=O)N[C@@H](Cc1ccccc1)C(N)=O (stereo partly drawn) [Example 96, t-BOC-D,L-(α-methyl)Trp-Lys(ε-N-(2-methylphenyl)aminocarbonyl)-Asp-PheNH2] (Boc-[ξαMeW]K([CO-NH(2-Me-phenyl)])DF-NH2) |  |  | 16 | 9300 | 
